How the values were obtained:
procaspase-3 = target: T1, procaspase-3 (Homo sapiens, UniProt P42574); assay: Executioner procaspase-3 activation assay (Ac-DEVD-AFC fluorogenic substrate); type: biochemical; settings: incubation with compound for 5 h at 37° C.; 100 nM procaspase; read-out: Procaspase Activation 3
T1 construct: His6 (C); made in house; host or cells: E. coli BL21(DE3)RP, pET-23b
T1 sequence (P42574 1-277): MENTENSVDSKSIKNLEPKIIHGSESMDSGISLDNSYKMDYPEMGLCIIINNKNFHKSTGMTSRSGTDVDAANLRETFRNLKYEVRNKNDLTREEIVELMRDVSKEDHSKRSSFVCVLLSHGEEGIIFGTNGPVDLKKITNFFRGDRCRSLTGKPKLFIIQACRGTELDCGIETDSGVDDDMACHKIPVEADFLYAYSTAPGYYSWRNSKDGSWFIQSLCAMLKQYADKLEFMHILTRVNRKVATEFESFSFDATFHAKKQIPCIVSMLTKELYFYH
Description: The executioner procaspase-3, -6 and -7 activation assay protocol involves incubating the target protein at the physiologically-relevant concentration of 100 nM with activating compounds (ranging from 100 nM to 100 uM) in a total volume of 50 μL consisting of a reaction buffer of 50 mM HEPES, pH 7.4, 50 mM KCl, 1 mM DTT and 0.01% Triton-X100 (to reduce false positive hits due to compound aggregation). […] All components of the assay including protein, substrate and inhibitor are stored as frozen aliquots and thawed immediately prior to the assay.

procaspase-6 = target: T2, procaspase-6 (Homo sapiens, UniProt P55212); assay: Executioner procaspase-6 activation assay (Ac-VEID-AFC fluorogenic substrate); type: biochemical; settings: incubation with compound for 5 h at 37° C.; 100 nM procaspase
T2 sequence (P55212 1-293): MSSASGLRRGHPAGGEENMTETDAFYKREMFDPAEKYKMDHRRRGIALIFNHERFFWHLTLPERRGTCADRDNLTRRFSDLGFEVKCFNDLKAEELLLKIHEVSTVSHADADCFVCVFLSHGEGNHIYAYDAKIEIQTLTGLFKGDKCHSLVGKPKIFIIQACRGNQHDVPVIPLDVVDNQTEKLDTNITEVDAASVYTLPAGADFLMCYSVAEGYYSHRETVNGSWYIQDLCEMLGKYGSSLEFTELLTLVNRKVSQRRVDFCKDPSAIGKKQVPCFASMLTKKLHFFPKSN
Description: The executioner procaspase-3, -6 and -7 activation assay protocol involves incubating the target protein at the physiologically-relevant concentration of 100 nM with activating compounds (ranging from 100 nM to 100 uM) in a total volume of 50 μL consisting of a reaction buffer of 50 mM HEPES, pH 7.4, 50 mM KCl, 1 mM DTT and 0.01% Triton-X100 (to reduce false positive hits due to compound aggregation). The procaspase/small molecule incubations are then agitated at 37° C. and assayed at various time points by addition of the fluorogenic peptide substrate 7-Amino-4-trifluoromethylcoumarin-DEVD (Ac-DEVD-AFC) (procaspases-3, -7) or Ac-VEID-AFC (procaspase-6) to a final concentration of 25 μM and analyzed by a kinetic 30 minute assay (excitation 365 nm and emission 495 nm). The final concentration of DMSO in each well is 3% and has no effect on enzyme stability or activity. […] All components of the assay including protein, substrate and inhibitor are stored as frozen aliquots and thawed immediately prior to the assay.
Tables 1 and 2. Procaspase activation as a result of incubation with compound for 5 h at 37° C. (+++ EC50˜0.5-10 μM; ++ EC50˜10-50 μM; + EC50˜50-200 μM; -no activation observed; ND not determined).

SMILES	EC50 (procaspase-3)	EC50 (procaspase-6)
O=C(Nc1cccc(-c2cn3ccccc3n2)c1)c1cc2cccc(O)c2oc1=O [1541A, 8-Hydroxy-2-oxo-2H-chromene-3-carboxylic acid (3-imidazo[1,2-a]pyridin-2-yl-phenyl)-amide]	0.5 to 10 µM	> 100 µM
O=C(Nc1cccc(-c2cn3ccccc3n2)c1)c1cc2cccc(OC(F)(F)F)c2oc1=O [1541B, 2-Oxo-8-trifluoromethoxy-2H-chromene-3-carboxylic acid (3-imidazo[1,2-a]pyridin-2-yl-phenyl)-amide]	> 100 µM	> 100 µM
COc1ccc2cc(C(=O)Nc3cccc(-c4cn5ccccc5n4)c3)c(=O)oc2c1 [1541C, 7-Methoxy-2-oxo-2H-chromene-3-carboxylic acid (3-imidazo[1,2-a]pyridin-2-yl-phenyl)-amide]	> 100 µM	> 100 µM
COc1cc(CN2CCOCC2)c2oc(=O)c(C(=O)Nc3cccc(-c4cn5ccccc5n4)c3)cc2c1 [1541D, 6-Methoxy-8-morpholin-4-ylmethyl-2-oxo-2H-chromene-3-carboxylic acid (3-imidazo[1,2-a]pyridin-2-yl-phenyl)-amide]	> 100 µM	> 100 µM
COc1cccc2cc(C(=O)Nc3cccc(-c4nc5ccccc5[nH]4)c3)c(=O)oc12 [1541F, 8-Methoxy-2-oxo-2H-chromene-3-carboxylic acid [3-(1H-benzoimidazol-2-yl)-phenyl]-amide]	> 100 µM	> 100 µM
COc1cccc2cc(C(=O)Nc3ccccc3)c(=O)oc12 [1541H, 8-Methoxy-2-oxo-2H-chromene-3-carboxylic acid phenylamide]	> 100 µM	> 100 µM
COc1cccc2cc(C(=O)Nc3cccc(N4CCOCC4)c3)c(=O)oc12 [1541I, 8-Methoxy-2-oxo-2H-chromene-3-carboxylic acid (3-morpholin-4-yl-phenyl)-amide]	> 100 µM	> 100 µM
O=C(Nc1cccc(-c2cn3ccccc3n2)c1)c1cc2cc(Br)ccc2oc1=O [compound 1, 6-Bromo-2-oxo-2H-chromene-3-carboxylic acid (3-imidazo[1,2-a]pyridin-2-yl-phenyl)-amide]	50 to 200 µM	50 to 200 µM
O=C(Nc1cccc(-c2cn3ccccc3n2)c1)c1cc2cccc(F)c2oc1=O [compound 2, 8-Fluoro-2-oxo-2H-chromene-3-carboxylic acid (3-imidazo[1,2-a]pyridin-2-yl-phenyl)-amide]	0.5 to 10 µM	0.5 to 10 µM
O=C(Nc1cccc(-c2cn3ccccc3n2)c1)c1cc2ccc(O)c(O)c2oc1=O [compound 3, 7,8-Dihydroxy-2-oxo-2H-chromene-3-carboxylic acid (3-imidazo[1,2-a]pyridin-2-yl-phenyl)-amide]	50 to 200 µM	> 100 µM
O=C(Nc1cccc(-c2cn3ccccc3n2)c1)c1cc2cccc(Br)c2oc1=O [compound 4, 8-Bromo-2-oxo-2H-chromene-3-carboxylic acid (3-imidazo[1,2-a]pyridin-2-yl-phenyl)-amide]	> 100 µM	> 100 µM
CCOc1cccc2cc(C(=O)Nc3cccc(-c4cn5ccccc5n4)c3)c(=O)oc12 [compound 5, 8-Ethoxy-2-oxo-2H-chromene-3-carboxylic acid (3-imidazo[1,2-a]pyridin-2-yl-phenyl)-amide]	> 100 µM	> 100 µM
COc1ccc2oc(=O)c(C(=O)Nc3cccc(-c4cn5ccccc5n4)c3)cc2c1 [compound 6, 6-Methoxy-2-oxo-2H-chromene-3-carboxylic acid (3-imidazo[1,2-a]pyridin-2-yl-phenyl)-amide]	> 100 µM	> 100 µM
O=C(Nc1cccc(-c2cn3ccccc3n2)c1)c1cc2cc(O)c(O)cc2oc1=O [compound 7, 6,7-Dihydroxy-2-oxo-2H-chromene-3-carboxylic acid (3-imidazo[1,2-a]pyridin-2-yl-phenyl)-amide]	> 100 µM	> 100 µM
COc1ccc2cc(C(=O)Nc3cccc(-c4cn5ccccc5n4)c3)c(=O)oc2c1OC [compound 8, 7,8-Dimethoxy-2-oxo-2H-chromene-3-carboxylic acid (3-imidazo[1,2-a]pyridin-2-yl-phenyl)-amide]	> 100 µM	
O=C(Nc1cccc(-c2cn3ccccc3n2)c1)c1cc2cc(OC(F)(F)F)ccc2oc1=O [compound 9, 6-Trifluoromethoxy-2-oxo-2H-chromene-3-carboxylic acid (3-imidazo[1,2-a]pyridin-2-yl-phenyl)-amide]	> 100 µM	> 100 µM
O=C(Nc1cccc(-c2cn3ccccc3n2)c1)c1cc2cc(I)ccc2oc1=O [compound 10, 6-Iodo-2-oxo-2H-chromene-3-carboxylic acid (3-imidazo[1,2-a]pyridin-2-yl-phenyl)-amide]	> 100 µM	> 100 µM
O=C(Nc1cccc(-c2cn3ccccc3n2)c1)c1cc2cc(O)ccc2oc1=O [compound 11, 6-Hydroxy-2-oxo-2H-chromene-3-carboxylic acid (3-imidazo[1,2-a]pyridin-2-yl-phenyl)-amide]	> 100 µM	> 100 µM
O=C(Nc1cccc(-c2cn3ccccc3n2)c1)c1cc2ccccc2oc1=O [compound 13, 2-oxo-2H-chromene-3-carboxylic acid (3-imidazo[1,2-a]pyridin-2-yl-phenyl)-amide]	> 100 µM	
COc1cc(N2CCOCC2)c2oc(=O)c(C(=O)Nc3cccc(-c4cn5ccccc5n4)c3)cc2c1 [compound 14, 6-Methoxy-8-morpholin-4-yl-2-oxo-2H-chromene-3-carboxylic acid (3-imidazo[1,2-a]pyridin-2-yl-phenyl)-amide]	> 100 µM	> 100 µM
COc1cccc2cc(C(=O)Nc3cccc(-c4ccncc4)c3)c(=O)oc12 [compound 20, 8-Methoxy-2-oxo-2H-chromene-3-carboxylic acid (3-pyridin-4-yl-phenyl)-amide]	> 100 µM	> 100 µM
COc1cccc2cc(C(=O)Nc3cccc(-c4cn5ccccc5n4)c3)oc12 [compound 179, 7-Methoxy-benzofuran-2-carboxylic acid (3-imidazo[1,2-a]pyridin-2-yl-phenyl)-amide]	10 to 50 µM	10 to 50 µM
O=C(Nc1cccc(-c2cn3ccccc3n2)c1)C1=Cc2cc(Cl)ccc2OC1 [compound 180, 6-Chloro-2H-chromene-3-carboxylic acid (3-imidazo[1,2-a]pyridin-2-yl-phenyl)-amide]	50 to 200 µM	> 100 µM
O=C(Nc1cccc(-c2cn3ccccc3n2)c1)c1cc2ccccc2[nH]c1=O [compound 181, 2-Oxo-1,2-dihydro-quinoline-3-carboxylic acid (3-imidazo[1,2-a]pyridin-2-yl-phenyl)-amide]	10 to 50 µM	10 to 50 µM
COc1cccc2c1OCC(C(=O)Nc1cccc(-c3cn4ccccc4n3)c1)=C2 [compound 182, 8-Methoxy-2H-chromene-3-carboxylic acid (3-imidazo[1,2-a]pyridin-2-yl-phenyl)-amide]	> 100 µM	> 100 µM
COc1cccc2cc(C(=O)Nc3ccc(-c4nc5ccccc5[nH]4)cc3)c(=O)oc12 [compound 183, 8-Methoxy-2-oxo-2H-chromene-3-carboxylic acid [4-(1H-benzoimidazol-2-yl)-phenyl]-amide]	0.5 to 10 µM	
COc1cccc2cc(C(=O)Nc3cccc(-c4cn5ccccc5n4)c3)c(=O)oc12 [compound 1541, 8-Methoxy-2-oxo-2H-chromene-3-carboxylic acid (3-imidazo[1,2-a]pyridin-2-yl-phenyl)-amide]		0.5 to 10 µM

Source: patent US8642788B2, “Activators of executioner procaspases 3, 6 and 7” (The Regents of the University of California, priority 2008, dated 2014)
